Assay results: patent US12304917B1, “Pleuromutilin derivative containing a thiazolo[5,4-c]pyridine side chain, and a preparation method and application thereof” (SHAANXI UNIVERSITY OF SCIENCE AND TECHNOLOGY, priority 2024, dated 2025)
Values after ≈ are worked out from the molar mass of the structure shown. Like-named read-outs stand apart in the source and are kept apart here.

Experiments:
E. coli CMCC 44103 = assay: MIC by broth microdilution; conditions: Escherichia coli, CMCC44103, 24 h, read-out: Minimum inhibitory concentration E.c.^i
S. enterica ATCC14028 = assay: MIC by broth microdilution; conditions: Salmonella enterica, ATCC14028, 24 h, read-out: Minimum inhibitory concentration S.e.^g
[1] = system: Methicillin-resistant S. epidermidis ATCC 51625; assay: MIC by broth microdilution; conditions: Staphylococcus epidermidis, ATCC51625|MRSE, 24 h, read-out: Minimum inhibitory concentration MRSE^e
[2] = Solubility experiment (equilibrium solubility); conditions: thermodynamic from solid
A. baumannii ATCC 19606 = assay: MIC by broth microdilution; conditions: Acinetobacter baumannii, ATCC19606, 24 h, read-out: Minimum inhibitory concentration A.b.^f
S. aureus ATCC 29213 = assay: MIC by broth microdilution; conditions: Staphylococcus aureus, ATCC29213, 24 h, read-out: Minimum inhibitory concentration S.a.^d
[3] = system: Methicillin-resistant S. aureus ATCC 33591; assay: MIC by broth microdilution; conditions: Staphylococcus aureus, ATCC33591|MRSA, 24 h, read-out: Minimum inhibitory concentration MRSA^b
E. coli ATCC 25922 = assay: MIC by broth microdilution; conditions: Escherichia coli, ATCC25922, 24 h, read-out: Minimum inhibitory concentration E.c.^h
[4] = system: Methicillin-resistant S. aureus ATCC 43300; assay: MIC by broth microdilution; conditions: Staphylococcus aureus, ATCC43300|MRSA, 24 h, read-out: Minimum inhibitory concentration MRSA^c
[5] = system: methicillin-resistant Staphylococcus aureus-171; assay: MIC against clinical isolate; format: cell-based
Excerpt: (§1) The Specific Steps are as Follows:

[6] = system: multidrug-resistant Pseudomonas aeruginosa-126; assay: MIC against clinical isolate; format: cell-based
Excerpt: as §1

[7] = system: vancomycin-resistant Enterococcus-80; assay: MIC against clinical isolate; format: cell-based
Excerpt: as §1

[8] = system: methicillin-resistant Staphylococcus aureus-596; assay: MIC against clinical isolate; format: cell-based
Excerpt: as §1

[9] = system: methicillin-resistant Staphylococcus aureus-206; assay: MIC against clinical isolate; format: cell-based
Excerpt: as §1

[10] = system: multidrug-resistant Klebsiella pneumoniae-893; assay: MIC against clinical isolate; format: cell-based; conditions: clinical isolate MDR-KP-893
Excerpt: as §1

[11] = system: carbapenem-resistant Acinetobacter baumannii-882; assay: MIC against clinical isolate; format: cell-based
Excerpt: as §1

[12] = system: methicillin-resistant Staphylococcus aureus-222; assay: MIC against clinical isolate; format: cell-based; conditions: MRSA / MRSE
Excerpt: as §1

[13] = system: methicillin-resistant Staphylococcus aureus-575; assay: MIC against clinical isolate; format: cell-based
Excerpt: as §1

[14] = system: HepG2 cells, HEK293 cells and A549 cells; assay: Cell Counting Kit-8 cytotoxicity, all tested cells as summarised in text; conditions: at a concentration of 100 μM
[15] = Cell Counting Kit-8 cytotoxicity; conditions: human
HepG2 cells [16] = assay: Cell Counting Kit-8 cytotoxicity; conditions: read-out: CC50 HepG2 Cells; CCK-8, 24 hours incubation
[17] = system: Gram-positive and Gram-negative bacteria; assay: MIC, panel of TABLE 1 strains as summarised in text; conditions: comparison of MIC with positive control drugs
A549 cells [18] = assay: Cell Counting Kit-8 cytotoxicity; conditions: read-out: CC50 A549 Cells; CCK-8, 24 hours incubation
[19] = system: five clinical MRSA isolates, including MRSA-171, MRSA-575, MRSA-206, MRSA-222, and MRSA-596; assay: MIC, five clinical MRSA isolates as summarised in text; format: cell-based, Staphylococcus aureus; conditions: MRSA-171, MRSA-575, MRSA-206, MRSA-222, MRSA-596
Excerpt: as §1

HEK293 cells [20] = assay: Cell Counting Kit-8 cytotoxicity; conditions: read-out: CC50 HEK293 Cells; CCK-8, 24 hours incubation
physchem = conditions: thermodynamic from solid
[21] = Cell Counting Kit-8 cytotoxicity; conditions: human, HepG2 cells
HepG2 cells [22] = conditions: human, 24 h
A549 cells [23] = conditions: human, 24 h
HEK293 cells [24] = conditions: human, 24 h

Row | Structure (SMILES) | MIC (E. coli CMCC 44103) | MIC (S. enterica ATCC14028) | MIC [1] | MIC (A. baumannii ATCC 19606) | MIC (S. aureus ATCC 29213) | MIC [3] | MIC (E. coli ATCC 25922) | MIC [4] | Antibacterial activity (MIC) MDR-KP^i [10] | toxicity to the tested cells (in words) [14] | antibacterial activity compared to valnemulin and retapamulin (in words) [17] | CC50 (A549 cells [18]) | solubility (physchem) | CC50 (HepG2 cells [22]) | CC50 (A549 cells [23]) | CC50 (HEK293 cells [24]) | other results
1 | C=C[C@]1(C)C[C@@H](OC(=O)CSc2nc3cc[n+](Cc4ccc([N+](=O)[O-])cc4)cc3s2)[C@]2(C)[C@H](C)CC[C@]3(CCC(=O)[C@H]32)[C@@H](C)[C@@H]1O [Compound I-6, 5-(4-nitrobenzyl)-2-((2-(((3aR,4R,5R,7S,8S,9R,9aS,12R)-8-hydroxy-4,7,9,12-tetramethyl-3-oxo-7-vinyldecahydro-4,9a-propancyclopenta[8]cyclo-5-yl)oxy)-2-oxoethyl)thio)thiazolo[5,4-c]pyridin-5-ium] | 32 µg/mL | 16 µg/mL | 16 µg/mL | 16 µg/mL | 32 µg/mL | 16 µg/mL | 8 µg/mL | 4 µg/mL | – | – | – | – | – | – | – | – | solubility [2]: 887 µM
2 | C=C[C@]1(C)C[C@@H](OC(=O)CSc2nc3cc[n+](Cc4ccc(C#N)cc4)cc3s2)[C@]2(C)[C@H](C)CC[C@]3(CCC(=O)[C@H]32)[C@@H](C)[C@@H]1O [Compound I-8, 5-(4-cyanobenzyl)-2-((2-(((3aR,4R,5R,7S,8S,9R,9aS,12R)-8-hydroxy-4,7,9,12-tetramethyl-3-oxo-7-vinyldecahydro-4,9a-propancyclopenta[8]cyclo-5-yl)oxy)-2-oxoethyl)thio)thiazolo[5,4-c]pyridin-5-ium] | 2 µg/mL | 2 µg/mL | 2 µg/mL | 1 µg/mL | 0.5 µg/mL | 1 µg/mL | 1 µg/mL | 1 µg/mL | 16 µg/mL | low toxicity | good antibacterial activity | > 100 µM | – | – | – | – | MIC ([5]; MRSA, read-out: Antibacterial activity (MIC) MRSA^b): 16 µg/mL; MIC ([6]; read-out: Antibacterial activity (MIC) MDR-PA^h): 32 µg/mL; MIC ([7]; VRE, read-out: Antibacterial activity (MIC) VRE^g): 16 µg/mL; MIC ([8]; MRSA, read-out: Antibacterial activity (MIC) MRSA^f): 8 µg/mL; MIC ([9]; MRSA, read-out: Antibacterial activity (MIC) MRSA^d): 64 µg/mL; MIC ([11]; read-out: Antibacterial activity (MIC) CR-AB^j): 64 µg/mL; MIC ([12]; read-out: Antibacterial activity (MIC) MRSE^e): 16 µg/mL; MIC ([13]; MRSA, read-out: Antibacterial activity (MIC) MRSA^c): 32 µg/mL; CC50 at 24 h [15]: 79.2 µM; CC50 (HepG2 cells [16]): 78.5 µM
3 | C=C[C@]1(C)C[C@@H](OC(=O)CSc2nc3cc[n+](Cc4ccc(C)cc4)cc3s2)[C@]2(C)[C@H](C)CC[C@]3(CCC(=O)[C@H]32)[C@@H](C)[C@@H]1O [Compound I-9, 5-(4-methylbenzyl)-2-((2-(((3aR,4R,5R,7S,8S,9R,9aS,12R)-8-hydroxy-4,7,9,12-tetramethyl-3-oxo-7-vinyldecahydro-4,9a-propancyclopenta[8]cyclo-5-yl)oxy)-2-oxoethyl)thio)thiazolo[5,4-c]pyridin-5-ium] | 0.125 µg/mL | 0.25 µg/mL | 0.25 µg/mL | 0.5 µg/mL | 0.125 µg/mL | 0.25 µg/mL | 0.25 µg/mL | 0.25 µg/mL | 2 µg/mL | low toxicity | most advantageous antibacterial activity | > 100 µM | 812 µM | – | – | – | MIC, range over five clinical MRSA isolates [19]: 2 to 8 µg/mL; MIC ([5]; clinical isolate MRSA-171, read-out: Antibacterial activity (MIC) MRSA^b): 8 µg/mL; MIC ([6]; clinical isolate MDR-PA-126, read-out: Antibacterial activity (MIC) MDR-PA^h): 8 µg/mL; MIC ([7]; clinical isolate VRE-80, read-out: Antibacterial activity (MIC) VRE^g): 8 µg/mL; MIC ([8]; clinical isolate MRSA-596, read-out: Antibacterial activity (MIC) MRSA^f): 8 µg/mL; MIC ([9]; clinical isolate MRSA-206, read-out: Antibacterial activity (MIC) MRSA^d): 2 µg/mL; MIC ([11]; clinical isolate CR-AB-882, read-out: Antibacterial activity (MIC) CR-AB^j): 4 µg/mL; MIC ([12]; clinical isolate, footnote e: MRSA-222, read-out: Antibacterial activity (MIC) MRSE^e): 4 µg/mL; MIC ([13]; clinical isolate MRSA-575, read-out: Antibacterial activity (MIC) MRSA^c): 4 µg/mL; CC50 (HEK293 cells [20]): 82.1 µM; CC50 at 24 h [21]: 66.4 µM
4 | C=C[C@]1(C)C[C@@H](OC(=O)CSc2nc3cc[n+](Cc4cc(OC)cc(OC)c4)cc3s2)[C@]2(C)[C@H](C)CC[C@]3(CCC(=O)[C@H]32)[C@@H](C)[C@@H]1O [Compound I-14, 5-(3,5-dimethoxybenzyl)-2-((2-(((3aR,4R,5R,7S,8S,9R,9aS,12R)-8-hydroxy-4,7,9,12-tetramethyl-3-oxo-7-vinyldecahydro-4,9a-propancyclopenta[8]cyclo-5-yl)oxy)-2-oxoethyl)thio)thiazolo[5,4-c]pyridin-5-ium] | 64 µg/mL | 64 µg/mL | 64 µg/mL | 32 µg/mL | 64 µg/mL | 32 µg/mL | 32 µg/mL | 32 µg/mL | – | – | – | – | 126 µM | – | – | – | –
5 | C=C[C@]1(C)C[C@@H](OC(=O)CS[C@@H]2C[C@H]3CC[C@@H](C2)N3C)[C@]2(C)[C@H](C)CC[C@]3(CCC(=O)[C@H]32)[C@@H](C)[C@@H]1O [Retapamulin, retapamulin, reference compound] | 32 µg/mL (≈ 61.8 µM) | 128 µg/mL (≈ 247 µM) | – | 4 µg/mL (≈ 7.73 µM) | 4 µg/mL (≈ 7.73 µM) | – | 32 µg/mL (≈ 61.8 µM) | – | – | – | – | – | – | 61.1 µM | 71.5 µM | 57.5 µM | –
6 | C=C[C@]1(C)C[C@@H](OC(=O)CSC(C)(C)CNC(=O)[C@H](N)C(C)C)[C@]2(C)[C@H](C)CC[C@]3(CCC(=O)[C@H]32)[C@@H](C)[C@@H]1O [Valnemulin, valnemulin, reference compound] | 64 µg/mL (≈ 113 µM) | 64 µg/mL (≈ 113 µM) | – | 2 µg/mL (≈ 3.54 µM) | 4 µg/mL (≈ 7.08 µM) | – | 16 µg/mL (≈ 28.3 µM) | – | – | – | – | – | 386 µM (≈ 218 µg/mL) | 77.3 µM | 53.7 µM | 65.4 µM | –
